ChEMBL document CHEMBL3045506, “Spore Germination Self-Inhibitors from Plant Pathogenic Fungi” (1997)
In brackets after ≈: the same amount, converted by molar mass.

How the values were obtained:
Format in all cases: functional
[1] = system: Puccinia graminis f. sp. tritici; assay: Antifungal activity against Puccinia graminis f. sp. tritici assessed as inhibition of uredospore germination after 48 hr by microscope-slide assay
[2] = system: Puccinia coronata; assay: Antifungal activity against Puccinia coronata assessed as inhibition of uredospore germination after 48 hr by microscope-slide assay
[3] = system: Colletotrichum gloeosporioides; assay: Antifungal activity against Colletotrichum gloeosporioides f. sp. jussiaea assessed as conidial germination at 3 ppm after 48 hr by microscopic analysis
[4] = system: Colletotrichum gloeosporioides; assay: Antifungal activity against Colletotrichum gloeosporioides f. sp. jussiaea assessed as conidial germination at 10 ppm after 48 hr by microscopic analysis
[5] = system: Colletotrichum gloeosporioides; assay: Antifungal activity against Colletotrichum gloeosporioides f. sp. jussiaea assessed as conidial germination at 30 ppm after 48 hr by microscopic analysis
[6] = system: Colletotrichum gloeosporioides; assay: Antifungal activity against Colletotrichum gloeosporioides f. sp. jussiaea assessed as conidial germination at 100 ppm after 48 hr by microscopic analysis

Structure (SMILES) | ED50 [1] [ng/mL] | ED50 [2] [ng/mL] | Activity [3] [%] | Activity [4] [%] | Activity [5] [%] | Activity [6] [%]
COC(=O)C(=Cc1ccc(O)c(OC)c1)C(=O)OC | 0.27 (≈ 1.01 nM) | 6.8 (≈ 25.5 nM) | – | – | – | –
C/C=C1/C(=O)Nc2ccccc21 | – | – | 40 | 0 | 0 | 0
C/C=C1\C(=O)Nc2ccccc21 | – | – | 68 | 0 | 0 | 0
CCCCC[C@H]1CCCCC[C@H]2CC(=O)[C@@H](CCC(=O)O1)O2.NN [7-EPIGLOEOSPORONE] | – | – | – | – | 82 | 45
CCCCC[C@@H]1CCCCC[C@@H]2CC(=O)[C@H](CCC(=O)O1)O2.NN [13-EPIGLOEOSPORONE] | – | – | – | – | 81 | 48
CCCCC[C@H]1CCCCC[C@H]2CC(=O)[C@@H](CCC(=O)O1)O2 [(+)-GLOEOSPORONE] | – | – | – | – | 81 | 44
CCCCC[C@@H]1CCCCC[C@@H]2CC(=O)[C@H](CCC(=O)O1)O2 [(-)-GLOEOSPORONE] | – | – | – | – | 82 | 49
COC(=O)C(=Cc1ccc(OC)c(OC)c1)C(=O)OC [METHYL 3,4-DIMETHOXYBENZALMALONATE] | 4.16 (≈ 14.8 nM) | 0.025 (≈ 0.0892 nM) | – | – | – | –
COC(=O)/C=C\c1ccc(OC)c(OC)c1 [METHYL CIS-3,4-DIMETHOXYCINNAMATE] | 3.68 (≈ 16.6 nM) | 0.013 (≈ 0.0585 nM) | – | – | – | –
COC(=O)/C=C\c1ccc(O)c(OC)c1 [METHYL CIS-FERULATE] | 0.18 (≈ 0.864 nM) | 5.57 (≈ 26.8 nM) | – | – | – | –
